The text below walks through data of patent publication US10328053B2 (Gilead Sciences, Inc., priority 2016, dated 2019).

Data set [1] concerns HBV AD38 viral particles in HepG2 cell line overexpressing NTCP. Description: HBV DNA Quantification Assay. In kind it is cell-based. Conditions: Hepatitis B virus, HepG2, 120 h, HBV-infected HepG2-NTCP cells, 5 days incubation, HBV DNA in culture supernatant (QuantiGene 2.0); geometric mean of a minimum of four determinations. On the procedure:
HBV DNA Quantification Assay
A HepG2 cell line overexpressing the HBV virus attachment receptor sodium-taurocholate cotransporting polypeptide (NTCP) was grown to confluency in DMEM growth medium, Dulbecco's Modified Eagle Medium without sodium pyruvate (Life Technologies, Rockville, Md.) supplemented with 10% FBS (Thermo Scientific, Waltham, Md.), 1% penicillin/streptomycin (Life Technologies, Rockville, Md.) and 2 mM L-glutamine (Life Technologies, Rockville, Md.) in T175 flasks. Cells were infected with HBV AD38 viral particles (Texcell, Frederick, USA) at 4000 genome equivalents per cell. After allowing viral infection to take place for 4 days, the infected cells were harvested from the flasks by trypsinization, washed twice with OptiMEM (Life Technologies, Rockville, Md.) and re-suspended in DMEM containing 2% FBS and 1% DMSO at a density of 0.25E6 cells/ml. Infected cells were seeded on 384 well collagen coated plates (Greiner, Austria) at a density of 20,000 cells/well containing serially diluted compounds of the present disclosure or DMSO (0.5%) in a final volume of 80 μl. The assay plates were incubated for a period of 5 days and the antiviral activity of the test compounds were assayed by detecting the presence of HBV DNA in the culture supernatant using the QuantiGene™ 2.0 nucleic acid quantification kit (Affymetrix, Santa Clara, Calif.).
The culture supernatant was harvested and treated with lysis buffer containing Proteinase K (Affymetrix, Santa Clara, Calif.). The supernatant was incubated with HBV viral DNA specific probes (Affymetrix, Santa Clara, Calif.) for 30 minutes at 55° C. This was followed by addition of 0.2M NaOH for 30 minutes at room temperature to denature the DNA, followed by addition of Neutralization buffer (Affymetrix, Santa Clara, Calif.). The resulting lysed and neutralized supernatant was then added to QuantiGene™ 2.0 384 well plates coated with capture oligonucleotides and incubated overnight at 55° C. The HBV specific probe set consists of Capture Extender oligonucleotides (CE's) and blocking probes. Following the overnight incubation, the wells were incubated for one hour sequentially with a Pre-Amplifier, Amplifier and Labeled probes conjugated to alkaline phosphatase with a wash step between incubations. After the final wash step, the alkaline phosphatase substrate (Luminol APS5) was added and the resulting luminescence signal was read in an EnVision Multilabel Plate Reader (PerkinElmer, Santa Clara, Calif.). The EC50 values were calculated from the fit of the dose—response curves to a four-parameter equation. All EC50 values represent geometric mean values of a minimum of four determinations.

Data set [2] in a line: Hepatic Stability Assay (in vitro half-life method). Also noted: dose or concentration left out as unconfirmed. Conditions: pooled cryopreserved hepatocytes, 37° C., 1×10^6 cells/mL, 0-6 hours, LC-MS/MS, 39.5 hours is the maximum detectable half life, read-out: t½ (converted). In kind it is in vitro ADME. A digest of the protocol: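 Pooled cryopreserved hepatocytes (1×10^6 cells/mL) incubated with compound at […] test concentration, 37° C.; samples at 0, 1, 3 and 6 h quantified by LC-MS/MS. Half-life from rate of compound disappearance, scaled to predicted hepatic clearance via well-stirred model.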

Broadly, the EC50 is the concentration at which the effect is half-maximal. For `Cc1c(C(=O)C(=O)NC2(c3c[nH]nn3)COC2)c2n(c1C(=O)Nc1ccc(F)c(F)c1)[C@@H]1C[C@@H]1C2` [Example 87, (1aR,6aR)-5-(2-((3-(1H-1,2,3-triazol-4-yl)oxetan-3-yl)amino)-2-oxoacetyl)-N-(3,4-difluorophenyl)-4-methyl-1,1a,6,6a-tetrahydrocyclopropa[b]pyrrolizine-3-carboxamide], it took 12.5 nM to reach a half-maximal effect in data set [1] (EC50). Moreover, the half-life in data set [2] was 6.3 h.

For `Cc1c(C(=O)C(=O)NC2(c3cnn[nH]3)CC2)c2n(c1C(=O)Nc1ccc(F)cc1F)CCC2` [Example 93, 7-(2-((1-(1H-1,2,3-triazol-5-yl)cyclopropyl)amino)-2-oxoacetyl)-N-(2,4-difluorophenyl)-6-methyl-2,3-dihydro-1H-pyrrolizine-5-carboxamide], it took 254 nM to reach a half-maximal effect in data set [1] (EC50). Also, the half-life in data set [2] is 29.9 h.

For the compound `Cc1c(C(=O)C(=O)NC2(C(=O)N3CC(F)C3)CC(F)(F)C2)c2n(c1C(=O)Nc1ccc(F)c(Cl)c1)CCC2` [Example 14, N-(3-chloro-4-fluorophenyl)-7-(2-((3,3-difluoro-1-(3-fluoroazetidine-1-carbonyl)cyclobutyl)amino)-2-oxoacetyl)-6-methyl-2,3-dihydro-1H-pyrrolizine-5-carboxamide], it took 8.8 nM to reach a half-maximal effect in data set [1] (EC50). In addition, the half-life in data set [2] was 2.1 h.

`Cc1c(C(=O)C(=O)NC2(c3cnn[nH]3)CC2)c2n(c1C(=O)Nc1ccc(F)c(Cl)c1F)CCC2` [Example 84, 7-(2-((1-(1H-1,2,3-triazol-5-yl)cyclopropyl)amino)-2-oxoacetyl)-N-(3-chloro-2,4-difluorophenyl)-6-methyl-2,3-dihydro-1H-pyrrolizine-5-carboxamide]: the EC50 in data set [1] was 31 nM. For the same compound, the half-life in data set [2] was 10.7 h.

With `Cc1c(C(=O)C(=O)NC2(c3c[nH]nn3)CC(F)(F)C2)c2n(c1C(=O)Nc1ccc(F)c(C(F)F)c1)CCC2` [Example 89, 7-(2-((3,3-difluoro-1-(1H-1,2,3-triazol-4-yl)cyclobutyl)amino)-2-oxoacetyl)-N-(3-(difluoromethyl)-4-fluorophenyl)-6-methyl-2,3-dihydro-1H-pyrrolizine-5-carboxamide], in data set [1], the EC50 came to 2.9 nM. In addition, the half-life in data set [2] was 10.3 h.

For `CNC(=O)[C@](C)(NC(=O)C(=O)c1c(C)c(C(=O)Nc2ccc(F)c(F)c2)n2c1CCC2)C(F)(F)F` [Example 138, (S)—N-(3,4-difluorophenyl)-6-methyl-7-(2-oxo-2-((1,1,1-trifluoro-2-methyl-3-(methylamino)-3-oxopropan-2-yl)amino)acetyl)-2,3-dihydro-1H-pyrrolizine-5-carboxamide], it took 160 nM to reach a half-maximal effect in data set [1] (EC50). Besides, in data set [2], the half-life was 17.9 h.

In data set [1], `Cc1c(C(=O)C(=O)NC2(c3c[nH]nn3)CC(F)(F)C2)c2n(c1C(=O)Nc1ccc(F)cc1)C[C@H](F)C2` [Example 48, (R)-7-(2-((3,3-difluoro-1-(1H-1,2,3-triazol-4-yl)cyclobutyl)amino)-2-oxoacetyl)-2-fluoro-N-(4-fluorophenyl)-6-methyl-2,3-dihydro-1H-pyrrolizine-5-carboxamide] yielded a concentration giving a half-maximal response (EC50) of 6.5 nM. For the same compound, the half-life in data set [2] is 7.9 h.

In turn, `CNC(=O)C1(NC(=O)C(=O)c2c(C)c(C(=O)Nc3ccc(F)c(C#N)c3)n3c2CCC3C)CC(F)(F)C1` (stereo not drawn) [Example 19, N-(3-cyano-4-fluorophenyl)-7-(2-((3,3-difluoro-1-(methylcarbamoyl)cyclobutyl)amino)-2-oxoacetyl)-3,6-dimethyl-2,3-dihydro-1H-pyrrolizine-5-carboxamide] returned a 50% effective concentration (EC50) in data set [1] of 167 nM. For the same compound, the half-life in data set [2] is 18.3 h.

Take `Cc1c(C(=O)C(=O)NC2(c3c[nH]nn3)CC(F)(F)C2)c2n(c1C(=O)Nc1ccc(F)c(C#N)c1)CCC2` [Example 37, N-(3-cyano-4-fluorophenyl)-7-(2-((3,3-difluoro-1-(1H-1,2,3-triazol-4-yl)cyclobutyl)amino)-2-oxoacetyl)-6-methyl-2,3-dihydro-1H-pyrrolizine-5-carboxamide]: a half-maximal response in data set [1] (EC50) required 5.6 nM. In addition, the half-life in data set [2] is 10.9 h.

Turning to `Cc1c(C(=O)C(=O)NC2(c3c[nH]nn3)CC2)c2n(c1C(=O)Nc1cccc(Cl)c1)CCC2` [Example 74, 7-(2-((1-(1H-1,2,3-triazol-4-yl)cyclopropyl)amino)-2-oxoacetyl)-N-(3-chlorophenyl)-6-methyl-2,3-dihydro-1H-pyrrolizine-5-carboxamide], in data set [1], the concentration giving a half-maximal response (EC50) turned out to be 42 nM. Besides, the half-life in data set [2] was 22.2 h.

`CNC(=O)C1(NC(=O)C(=O)c2c(C)c(C(=O)Nc3ccc(F)c(Cl)c3)n3c2C[C@@H](O)C3)CC(F)(F)C1` [Example 16, (R)—N-(3-chloro-4-fluorophenyl)-7-(2-((3,3-difluoro-1-(methylcarbamoyl)cyclobutyl)amino)-2-oxoacetyl)-2-hydroxy-6-methyl-2,3-dihydro-1H-pyrrolizine-5-carboxamide]: a half-maximal response in data set [1] (EC50) required 456 nM. In data set [2], the half-life was 11.8 h.

Regarding `C#CC1(NC(=O)C(=O)c2c(C)c(C(=O)Nc3cc(F)c(F)c(F)c3)n3c2CCC3)CC1` [Example 92, 7-(2-((1-ethynylcyclopropyl)amino)-2-oxoacetyl)-6-methyl-N-(3,4,5-trifluorophenyl)-2,3-dihydro-1H-pyrrolizine-5-carboxamide], in data set [1], the response was half-maximal at 6.4 nM (EC50). In addition, the half-life in data set [2] is 2.2 h.

In data set [1], `Cc1c(C(=O)C(=O)NC2(c3c[nH]nn3)CC2)c2n(c1C(=O)Nc1ccc(F)c(F)c1F)CCC2` [Example 111, 7-(2-((1-(1H-1,2,3-triazol-4-yl)cyclopropyl)amino)-2-oxoacetyl)-6-methyl-N-(2,3,4-trifluorophenyl)-2,3-dihydro-1H-pyrrolizine-5-carboxamide] gave an EC50 of 154 nM. Besides, the half-life in data set [2] was 10.1 h.

For the compound `Cc1c(C(=O)C(=O)NC2(c3nncs3)CC2)c2n(c1C(=O)Nc1cc(F)c(F)c(F)c1)[C@@H]1C[C@@H]1C2` [Example 57, (1aR,6aR)-5-(2-((1-(1,3,4-thiadiazol-2-yl)cyclopropyl)amino)-2-oxoacetyl)-4-methyl-N-(3,4,5-trifluorophenyl)-1,1a,6,6a-tetrahydrocyclopropa[b]pyrrolizine-3-carboxamide], a half-maximal effect in data set [1] (EC50) was put at 9.9 nM. In addition, the half-life in data set [2] was 8 h.

In data set [1], `C#CC1(NC(=O)C(=O)c2c(C)c(C(=O)Nc3ccc(F)c(Cl)c3)n3c2CCC3)CC1` [Example 94, N-(3-chloro-4-fluorophenyl)-7-(2-((1-ethynylcyclopropyl)amino)-2-oxoacetyl)-6-methyl-2,3-dihydro-1H-pyrrolizine-5-carboxamide] registered a half-maximal effective concentration (EC50) of 5.8 nM. The half-life in data set [2] was 2.9 h.

Turning to `Cc1c(C(=O)C(=O)NC2(CNC3(C)CS(=O)(=O)C3)CC(F)(F)C2)c2n(c1C(=O)Nc1ccc(F)c(Cl)c1)CCC2` [Example 8, N-(3-chloro-4-fluorophenyl)-7-(2-((3,3-difluoro-1-(((3-methyl-1,1-dioxidothietan-3-yl)amino)methyl)cyclobutyl)amino)-2-oxoacetyl)-6-methyl-2,3-dihydro-1H-pyrrolizine-5-carboxamide], a half-maximal response in data set [1] (EC50) required 72 nM. For the same compound, in data set [2], the half-life is 0.4 h.

For `Cc1c(C(=O)C(=O)NC2(c3c[nH]nn3)CC2)c2n(c1C(=O)Nc1ccc(F)c(Cl)c1)C[C@H](F)C2` [Example 45, (R)-7-(2-((1-(1H-1,2,3-triazol-4-yl)cyclopropyl)amino)-2-oxoacetyl)-N-(3-chloro-4-fluorophenyl)-2-fluoro-6-methyl-2,3-dihydro-1H-pyrrolizine-5-carboxamide], the response in data set [1] was half-maximal at 9.1 nM (EC50). Further, in data set [2], the half-life is 13.3 h.

Compound `Cc1c(C(=O)C(=O)NC2(c3c[nH]nn3)CC2)c2n(c1C(=O)Nc1cccc(Cl)c1F)CCC2` [Example 107, 7-(2-((1-(1H-1,2,3-triazol-4-yl)cyclopropyl)amino)-2-oxoacetyl)-N-(3-chloro-2-fluorophenyl)-6-methyl-2,3-dihydro-1H-pyrrolizine-5-carboxamide] came in with a 50% effective concentration (EC50) in data set [1] of 146 nM. Moreover, the half-life in data set [2] is 9.8 h.
